# Source: US20150344540A1, “NOVEL GLP-1 RECEPTOR AGONISTS WITH CHOLESTEROL EFFLUX ACTIVITY” (NOVO NORDISK A/S, priority 2012, published 2015)
# Where two headings read alike, the source gives them in different places. Where a SMILES comes first, the peptide text is derived from it. [ ]: non-standard residue; d: D form. Aib = CC(C)(N)C(=O)O
# Tests used:
# [1] = Pharmacokinetics in normal mice after i.v. and s.c. administration; format: in vivo, female C57B1/6J mice
# Procedure: The mice, 60 female C57B1/6J were purchased from Taconic, arriving at Novo Nordisk A/S Animal Unit at 6-7 weeks of age. The mice were housed according to standard rules in the animal unit and given free access to standard chow and tap water. The animals were kept at a room temperature and housed in groups of 8 mice, with free access to food and water, according to Animal Unit's SOP (Housing of experimental animals at Novo Nordisk A/S).
# Peptide is administered as a single dose either s.c. or i.v.
# After the 2nd sample the mice were sacrificed. The plasma concentrations of the compounds with intact N-terminus were determined using a Luminescence Oxygen Chanelling Immuno-assay (LOCI). The donor beads were coated with streptavidin, while acceptor beads were conjugated with a monoclonal antibody recognizing a mid-/C-terminal epitope of the peptide. The other monoclonal antibody, specific for the N-terminus, was biotinylated. The three reactants were combined with the analyte and formed a two-sited immuno-complex. Illumination of the complex released singlet oxygen atoms from the donor beads, which were channeled into the acceptor beads and triggered chemiluminescence which was measured in an Envision plate reader. The amount of light was proportional to the concentration of the compound.
# human GLP-1 receptor [2] = biological target: T1, human GLP-1 receptor (Homo sapiens, UniProt P43220); test: Functional GLP-1 receptor assay, in vitro potency (CRE luciferase; whole cells); format: cell-based; settings: BHK cells expressing human GLP-1 receptor
# Target sequence in this assay (P43220 24-463): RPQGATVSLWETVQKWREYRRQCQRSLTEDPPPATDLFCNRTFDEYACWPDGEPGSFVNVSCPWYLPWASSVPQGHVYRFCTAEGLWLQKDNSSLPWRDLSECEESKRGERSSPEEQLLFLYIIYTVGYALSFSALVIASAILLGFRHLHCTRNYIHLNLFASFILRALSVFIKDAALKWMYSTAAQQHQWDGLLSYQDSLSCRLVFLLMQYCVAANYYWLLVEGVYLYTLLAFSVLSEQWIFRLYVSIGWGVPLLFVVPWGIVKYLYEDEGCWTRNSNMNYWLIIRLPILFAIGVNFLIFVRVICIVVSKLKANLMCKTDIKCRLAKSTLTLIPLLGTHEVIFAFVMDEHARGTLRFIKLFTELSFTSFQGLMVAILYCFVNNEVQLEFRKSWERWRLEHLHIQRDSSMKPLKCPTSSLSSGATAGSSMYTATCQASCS
# [3] = Pharmacokinetics in mini-pigs after i.v. administration; settings: female, Göttingen, minipig, plasma, iv, 5 nmol/kg
# In short: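 Female Göttingen mini-pigs (15-20 kg, N=3) received 5 nmol/kg i.v. via central venous catheter. Plasma levels of N-terminally intact peptide measured by LOCI immunoassay with N-terminal and mid-/C-terminal antibodies; non-compartmental analysis of individual profiles.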
# [4] = test system: Mouse monocyte/macrophage cell line, RAW 264.7; test: Cholesterol efflux assay (3H-cholesterol, macrophage cell line); format: cell-based; settings: RAW 264.7, 4 hrs incubation, 0.1% human serum albumin, ABCA1-mediated efflux
# human GLP-1 receptor [5] = biological target: T1, human GLP-1 receptor
# human GLP-1 receptor [6] = biological target: human GLP-1 receptor (human, UniProt P43220)
# [7] = female, C57B1/6J, mouse, plasma, sc
# [8] = mice, s.c., Compound 1 dose 323 nmol/kg, Compound 5 dose 62 nmol/kg
# [9] = GLP1R CRE luc 1% HSA EC50 Mean Value, 1% HSA
# [10] = T1/2 Mean Value, Göttingen mini-pigs, N=3
compound,measurement,setting,value
"CC[C@H](C)[C@H](NC(=O)[C@H](Cc1ccccc1)NC(=O)[C@H](CCC(=O)O)NC(=O)[C@H](CCCCN)NC(=O)[C@@H](NC(=O)[C@H](C)NC(=O)[C@H](CCC(=O)O)NC(=O)CNC(=O)[C@H](CCC(=O)O)NC(=O)[C@H](CC(C)C)NC(=O)[C@H](Cc1ccc(O)cc1)NC(=O)[C@H](CO)NC(=O)[C@H](CO)NC(=O)[C@@H](NC(=O)[C@H](CC(=O)O)NC(=O)[C@H](CO)NC(=O)[C@@H](NC(=O)[C@H](Cc1ccccc1)NC(=O)[C@@H](NC(=O)CNC(=O)[C@H](CCC(=O)O)NC(=O)C(C)(C)NC(=O)[C@@H](N)Cc1c[nH]cn1)[C@@H](C)O)[C@@H](C)O)C(C)C)C(C)C)C(=O)N[C@@H](C)C(=O)N[C@@H](Cc1c[nH]c2ccccc12)C(=O)N[C@@H](CC(C)C)C(=O)N[C@H](C(=O)N[C@@H](CCC(=O)O)C(=O)N[C@@H](CCCCN)C(=O)N[C@H](C(=O)N[C@@H](CCCCN)C(=O)N[C@@H](CCC(=O)O)C(=O)N[C@@H](Cc1c[nH]cn1)C(=O)N[C@@H](CC(C)C)C(N)=O)C(C)C)C(C)C [Compound 5, [Aib8,Glu23,Val25,Glu34,Lys35,Val36,Lys37]-GLP-1-(7-37)-peptidyl-Glu-His-Leu amide] (H-H[Aib]EGTFTSDVSSYLEGEAVKEFIAWLVEKVKEHL-NH2)",half-life,"[1]; female, C57B1/6J, mouse, plasma, iv",5.9 h
same,Vd,"[1]; female, C57B1/6J, mouse, plasma, iv, read-out: Volume of distribution",0.048 L/kg
same,Tmax,[1]; [7],4 h
same,half-life,[1]; [7],9.7 h
same,clearance,"[1]; mice, i.v., Compound 1 dose 99 nmol/kg, Compound 5 dose 135 nmol/kg",5.6 mL/h/kg
same,Volume of distribution,[1]; [8],0.1164 L/kg
same,clearance,[1]; [8],8.298 mL/h/kg
same,EC50,human GLP-1 receptor [2]; [9],116 pM
same,C0,[3],63.3 nM
same,Vd,[3],0.128 L/kg
same,clearance,[3],3.87 mL/h/kg
same,half-life,"[3]; T1/2, mini-pigs",23 h
same,half-life,[3]; [10],23 h
same,4 h Cholesterol Efflux Emax,[4],111%
"CC[C@H](C)[C@H](NC(=O)[C@H](Cc1ccccc1)NC(=O)[C@H](CCC(=O)O)NC(=O)[C@H](CCCCN)NC(=O)[C@@H](NC(=O)[C@H](C)NC(=O)[C@H](CCC(=O)O)NC(=O)CNC(=O)[C@H](CCC(=O)O)NC(=O)[C@H](CC(C)C)NC(=O)[C@H](Cc1ccc(O)cc1)NC(=O)[C@H](CO)NC(=O)[C@H](CO)NC(=O)[C@@H](NC(=O)[C@H](CC(=O)O)NC(=O)[C@H](CO)NC(=O)[C@@H](NC(=O)[C@H](Cc1ccccc1)NC(=O)[C@@H](NC(=O)CNC(=O)[C@H](CCC(=O)O)NC(=O)C(C)(C)NC(=O)[C@@H](N)Cc1c[nH]cn1)[C@@H](C)O)[C@@H](C)O)C(C)C)C(C)C)C(=O)N[C@@H](C)C(=O)N[C@@H](Cc1c[nH]c2ccccc12)C(=O)N[C@@H](CC(C)C)C(=O)N[C@H](C(=O)N[C@@H](CCC(=O)O)C(=O)N[C@@H](CCCCN)C(=O)N[C@H](C(=O)N[C@@H](CCCCN)C(=O)N[C@@H](CCC(=O)O)C(=O)N[C@@H](CCCCN)C(=O)N[C@@H](CC(C)C)C(N)=O)C(C)C)C(C)C [Compound 118, [Aib8,Glu23,Val25,Glu34,Lys35,Val36,Lys37]-GLP-1-(7-37)-peptidyl-Glu-Lys-Leu amide] (H-H[Aib]EGTFTSDVSSYLEGEAVKEFIAWLVEKVKEKL-NH2)",EC50,"human GLP-1 receptor [2]; 0% HSA, read-out: GLP1R CRE luc 0% HSA EC50 Mean Value",59 pM
same,EC50,human GLP-1 receptor [2]; [9],29 pM
same,C0,[3],62.9 nM
same,Vd,[3],0.0809 L/kg
same,clearance,[3],4.99 mL/h/kg
same,half-life,[3]; [10],11.2 h
same,4 h Cholesterol Efflux Emax,[4],136%
Exendin-4(1-39) (ligand),"CRE luciferase EC50, 0% HSA",human GLP-1 receptor [5],5 pM
same,"CRE luciferase EC50, 1% HSA",human GLP-1 receptor [5],4 pM
"[Aib2,Gly16,Lys17,Ala18,Arg20,Glu21,Leu27,Glu28,Lys29]-Glucagonyl-(1-29)-Aib-Lys-Glu-Phe-Leu amide (peptide)","CRE luciferase EC50, 0% HSA",human GLP-1 receptor [6],1630 pM
same,"CRE luciferase EC50, 1% HSA",human GLP-1 receptor [6],908 pM
"[Aib2,Gly16,Lys17,Arg20,Glu21,Leu27,Glu28,Lys29]-Glucagonyl-(1-29)-Aib-Lys-Glu-Phe-Leu amide (peptide)","CRE luciferase EC50, 0% HSA",human GLP-1 receptor [6],591 pM
same,"CRE luciferase EC50, 1% HSA",human GLP-1 receptor [6],297 pM
"[Aib2,His3,Glu15,Glu16,Glu17,Ala18,Lys20,Glu21,Ile23,Ala24,Leu27,Glu28,Lys29]-Glucagonyl-(1-29)-Aib-Lys-Glu-Phe-Leu amide (peptide)","CRE luciferase EC50, 0% HSA",human GLP-1 receptor [6],80 pM
same,"CRE luciferase EC50, 1% HSA",human GLP-1 receptor [6],49 pM
"[Aib2,Lys17,Ala18,Arg20,Glu21,Leu27,Glu28,Lys29]-Glucagonyl-(1-29)-Aib-Lys-Glu-Phe-Leu amide (peptide)","CRE luciferase EC50, 0% HSA",human GLP-1 receptor [6],393 pM
same,"CRE luciferase EC50, 1% HSA",human GLP-1 receptor [6],153 pM
"[Glu15,Glu16,Gln17,Ala18,Lys20,Glu21,Ile23,Ala24,Leu27,Glu28,Lys29]-Glucagonyl-(1-29)-Aib-Lys-Glu-Phe-Leu amide (peptide)","CRE luciferase EC50, 0% HSA",human GLP-1 receptor [6],118 pM
same,"CRE luciferase EC50, 1% HSA",human GLP-1 receptor [6],61 pM
"[Glu15,Glu16,Lys17,Ala18,Lys20,Glu21,Ile23,Ala24,Leu27,Glu28,Lys29]-Glucagonyl-(1-29)-Aib-Lys-Glu-Phe-Leu amide (peptide)","CRE luciferase EC50, 0% HSA",human GLP-1 receptor [6],86 pM
same,"CRE luciferase EC50, 1% HSA",human GLP-1 receptor [6],44 pM
"[Glu15,Glu16,Lys17,Lys18,Lys20,Glu21,Ile23,Ala24,Leu27,Glu28,Lys29]-Glucagonyl-(1-29)-Aib-Lys-Glu-Phe-Leu amide (peptide)","CRE luciferase EC50, 0% HSA",human GLP-1 receptor [6],1170 pM
same,"CRE luciferase EC50, 1% HSA",human GLP-1 receptor [6],588 pM
"[Lys17,Ala18,Arg20,Glu21,Leu27,Glu28,Lys29]-Glucagonyl-(1-29)-Aib-Lys-Glu-Phe-Leu amide (peptide)","CRE luciferase EC50, 0% HSA",human GLP-1 receptor [6],434 pM
same,"CRE luciferase EC50, 1% HSA",human GLP-1 receptor [6],198 pM
